Data: PMC7651859, “Identification of 6-amino-1H-pyrazolo[3,4-d]pyrimidines with in vivo efficacy against visceral leishmaniasis” (RSC Medicinal Chemistry, 2020)
≈ marks a conversion by molar mass, not a printed value. Like-named read-outs stand apart in the source and are kept apart here.

Assays:
L. donovani amastigotes = test: Ld InMac intramacrophage Leishmania donovani assay; format: cell-based; conditions: Leishmania donovani; L. donovani amastigotes in THP-1 cells; mean of n ≥ 3; read-out: Ld InMac pEC50 (converted)
Source text: (§1) For the identification of DDD853651/GSK3186899, which contained a trans-1,4-cyclohexyldiamine, a key strategy was to optimise the balance between potency in the intracellular Leishmania assay (L. donovani in THP-1 cells, referred to as Ld InMac assay[9]) and solubility.[10] In that case, we focused on 2 (Table 1), where the sulfonamide was required for potency but was poorly soluble. […] To this end, we examined a 4-aminopiperidine central unit with both sulfonamide and amide substituents (Table 1). […] We therefore selected 4 as a suitable start-point for further chemistry. […] We noted that either lengthening the linker to the aromatic ring, or removing it, led to a loss of activity (6 and 7 respectively).
(§2) Intramacrophage Leishmania donovani Assay

THP-1 cells = test: THP-1 host cell toxicity readout of the Ld InMac assay; format: cell-based; conditions: Homo sapiens; host THP-1 cells; mean of n ≥ 3; read-out: THP-1 pEC50 (converted)
Source text: as §1, §2

[1] = CAD kinetic aqueous solubility; format: physicochemical; conditions: pH 7.4, pH7.4 phosphate buffered saline
Protocol: CAD Aqueous Solubility 11
5µl of 10mM DMSO stock solution is diluted to 100 µ l with pH7.4 phosphate buffered saline,
equilibrated for 1 hour at room temperature and filtered through Millipore MultiscreenHTS-PCF

[2] = Stability in mouse liver microsomes (intrinsic clearance); format: in vitro ADME; conditions: mouse liver microsomal intrinsic clearance, 0.5 μM
Protocol: Stability in Microsomes 10
Test compound (0.5 μM) was incubated with female CD1 mouse (Xenotech) liver microsomes and their action started with addition of excess NADPH (8 mg/mL 50 mM potassium phosphate buffer, pH 7.4). Immediately, at time zero, then at 3, 6, 9, 15, and 30 min, an aliquot (50 μL) of the incubation mixture was removed and mixed with acetonitrile (100 μL) to stop the reaction.
Internal standard was added to all samples, the samples centrifuged to sediment precipitated protein, and the plates then sealed prior to UPLC-MS/MS analysis using a Xevo TQs micro (Waters Corporation, USA). XLfit (IDBS, UK) was used to calculate the exponential decay and consequently the rate constant (k) from the ratio of the peak area of test compound to internal standard at each time point. The rate of intrinsic clearance (Cl i) of each test compound was then calculated using the equation Cl i (mL/min/g liver) = k × V × microsomal protein yield, where V (mL/mg protein) is the incubation volume/mg protein added and […]
microsomal protein yield is taken as 52.5 mg protein/g liver. Verapamil (0.5 μM) was used as a positive control to confirm acceptable assay performance. […]

FaSSIF solubility = format: physicochemical; conditions: fasted state simulated intestinal fluid (FaSSIF)
[3] = Oral pharmacokinetics in Balb-c mice; format: in vivo; conditions: mouse, blood, female Balb-c mice, 100 mg kg^–1
Source text: On this basis, 48 and 50 were progressed into orally dosed pharmacokinetic studies in female Balb-c mice (Table 6), with both having sufficient Cmax (the highest concentration of a drug in the blood) and AUC (area under the curve) to progress into the previously reported mouse efficacy model of VL.[10]

L. donovani = test: Mouse efficacy model of VL; format: in vivo; conditions: for % Suppression of parasite load: liver load
Protocol: page 37: microsomal protein yield is taken as 52.5 mg protein/g liver. Verapamil (0.5 μM) was used as a positive control to confirm acceptable assay performance. In Vivo Efficacy Studies 10 Groups of female BALB/c mice (5 per group) were inoculated intravenously with approximately […] L. donovani amastigotes (LV9; WHO designation: MHOM/ET/67/HU3) harvested from the spleen of an infected hamster. From day 7 post infection, groups of mice were treated with either drug vehicle only (orally), with control drugs Miltefosine 30 mg/kg orally and Pentostam 15 mg/kg subcutaneously (only in compound 48 efficacy experiment) or with test compound at the appropriate dose. Miltefosine and Pentostam were dosed once daily for 5 days and test compounds were dosed twice daily for 5 days. Drug dosing solutions were prepared fresh each day and the vehicle was deionized water for Miltefosine and Pentostam, or 0.5% HPMC, 0.4% Tween 80, and 0.5% benzyl alcohol for test compounds. On day 14 all animals were humanely euthanized, liver smears made, and parasite burdens determined by counting the number of amastigotes/500 liver cells. Parasite burden is expressed in Leishman−Donovan units (LDU): the number of amastigotes per 500 nucleated cells multiplied by the organ weight in milligrams. S-37

ERK8 = biological target: T1, ERK8 (Homo sapiens, UniProt Q8TD08); test: Human kinase panel and IC50, ERK8; format: biochemical
T1 sequence (Q8TD08 1-544): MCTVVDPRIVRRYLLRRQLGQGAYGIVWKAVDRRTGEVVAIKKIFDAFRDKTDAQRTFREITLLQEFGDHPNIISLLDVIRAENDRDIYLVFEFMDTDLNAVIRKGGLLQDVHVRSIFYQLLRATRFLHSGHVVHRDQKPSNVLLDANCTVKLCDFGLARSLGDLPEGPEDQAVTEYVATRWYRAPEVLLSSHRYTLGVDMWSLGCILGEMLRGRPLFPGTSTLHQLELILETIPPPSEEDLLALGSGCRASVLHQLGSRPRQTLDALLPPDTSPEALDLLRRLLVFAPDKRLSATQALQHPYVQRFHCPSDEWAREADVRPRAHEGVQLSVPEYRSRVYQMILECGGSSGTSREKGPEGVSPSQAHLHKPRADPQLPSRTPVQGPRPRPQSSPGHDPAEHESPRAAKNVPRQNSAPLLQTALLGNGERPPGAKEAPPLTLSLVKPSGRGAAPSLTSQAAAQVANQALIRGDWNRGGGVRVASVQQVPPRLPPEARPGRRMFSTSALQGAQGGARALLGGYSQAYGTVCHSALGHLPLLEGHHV
Source text: (§3) From this, only 4 kinases were inhibited at >40% (ERK8 [extracellular signal-regulated kinases], p38α and p38β MAPK [mitogen-activated protein kinases] and CDK2 [cyclin dependant kinase]).

p38α MAPK = p38α MAPK (Homo sapiens, UniProt Q16539); test: Human kinase panel, p38α MAPK; format: biochemical; conditions: panel of 140 human kinases
Source text: as §3

p38β MAPK = p38β MAPK (Homo sapiens, UniProt Q15759); test: Human kinase panel and IC50, p38β MAPK; format: biochemical
Source text: as §3

CDK2 = CDK2 (Homo sapiens, UniProt P24941); test: Human kinase panel, CDK2; format: biochemical; conditions: panel of 140 human kinases
Source text: as §3

[4] = Rat dose-escalation PK study; format: in vivo
[5] = Aqueous solubility, values marked with ref 12; format: physicochemical; conditions: aqueous solution; values marked [12] in the table (method of ref 12, not CAD)
[6] = 10 μM, panel of 140 human kinases
[7] = dose increased from 100 to 300 mg kg^–1

Sequence of p38β MAPK (Q15759 whole entry): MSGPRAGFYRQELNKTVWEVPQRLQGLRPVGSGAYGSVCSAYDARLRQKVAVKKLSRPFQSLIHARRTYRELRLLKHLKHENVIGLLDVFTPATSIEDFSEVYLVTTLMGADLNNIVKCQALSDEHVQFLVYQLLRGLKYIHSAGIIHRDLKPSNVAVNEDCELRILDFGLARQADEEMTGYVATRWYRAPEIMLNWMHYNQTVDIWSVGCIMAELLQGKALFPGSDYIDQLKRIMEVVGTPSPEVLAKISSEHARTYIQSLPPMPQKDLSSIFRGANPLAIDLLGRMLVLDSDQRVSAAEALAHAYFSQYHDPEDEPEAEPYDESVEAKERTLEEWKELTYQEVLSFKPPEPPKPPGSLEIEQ
Sequence of p38α MAPK (Q16539 whole entry): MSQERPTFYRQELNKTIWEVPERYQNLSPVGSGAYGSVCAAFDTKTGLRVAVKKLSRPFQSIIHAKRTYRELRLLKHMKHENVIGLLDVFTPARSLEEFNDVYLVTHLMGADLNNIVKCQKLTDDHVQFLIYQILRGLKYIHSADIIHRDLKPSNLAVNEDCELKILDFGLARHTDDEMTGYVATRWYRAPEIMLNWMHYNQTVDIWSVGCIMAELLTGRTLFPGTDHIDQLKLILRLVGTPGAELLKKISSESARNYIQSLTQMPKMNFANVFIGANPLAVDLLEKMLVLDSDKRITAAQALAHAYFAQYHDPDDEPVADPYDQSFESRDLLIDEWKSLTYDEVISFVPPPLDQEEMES

## COc1ccccc1-c1n[nH]c2nc(NC3CCN(C(=O)CC4CC4)CC3)ncc12 [Compound 42]
L. donovani amastigotes
  EC50: 0.316 µM
THP-1 cells
  EC50: 39.8 µM
[1]
  solubility at 1 h: 22 µM (≈ 8.94 µg/mL)
[2]
  Cli mouse: 1.6 ml min^–1 g^–1
FaSSIF solubility
  solubility: < 1 µg/mL

## COc1ccccc1-c1n[nH]c2nc(NC3CCN(C(=O)Cc4ccc(F)c(F)c4)CC3)ncc12 [Compound 43]
L. donovani amastigotes
  EC50: 0.0251 µM
THP-1 cells
  EC50: 15.8 µM
[1]
  solubility at 1 h: 53 µM (≈ 25.4 µg/mL)
[2]
  Cli mouse: 6.3 ml min^–1 g^–1

## O=C(CC1CC1)N1CCC(Nc2ncc3c(C4CCOCC4)n[nH]c3n2)CC1 [Compound 44]
L. donovani amastigotes
  EC50: 7.94 µM
THP-1 cells
  EC50: > 50.1 µM
[1]
  solubility at 1 h: ≥ 496 µM
[2]
  Cli mouse: 0.8 ml min^–1 g^–1

## O=C(Cc1ccc(F)c(F)c1)N1CCC(Nc2ncc3c(C4CCOCC4)n[nH]c3n2)CC1 [Compound 47]
L. donovani amastigotes
  EC50: 1 µM
THP-1 cells
  EC50: > 50.1 µM
[1]
  solubility at 1 h: ≥ 429 µM
[2]
  Cli mouse: 3.1 ml min^–1 g^–1

## O=C(Cc1ccc(F)c(F)c1)N1CCC(Nc2ncc3c(N4CCOCC4)n[nH]c3n2)CC1 [Compound 48]
L. donovani amastigotes
  EC50: 0.794 µM
THP-1 cells
  EC50: > 50.1 µM
[1]
  solubility at 1 h: ≥ 465 µM
[2]
  Cli mouse: 1.6 ml min^–1 g^–1
FaSSIF solubility
  solubility: 97 µg/mL (≈ 212 µM)
[3]
  AUC: 20900 ng·h/mL
  Cmax: 5760 ng/mL
  Tmax: 1 h
L. donovani; 30 mg kg^–1 b.i.d. for 5 days PO
  % Suppression of parasite load: 60%
L. donovani; 100 mg kg^–1 b.i.d. for 5 days PO
  % Suppression of parasite load: 98%
L. donovani; mouse model of VL
  minimum efficacious dose: 100 mg kg^–1
ERK8; [6]
  inhibition at 10 µM: > 40%
ERK8; full IC50 curve
  IC50: 0.11 µM
p38α MAPK
  inhibition at 10 µM: > 40%
p38β MAPK; [6]
  inhibition at 10 µM: > 40%
p38β MAPK; full IC50 curve
  IC50: 0.55 µM
CDK2
  inhibition at 10 µM: > 40%
[4]; blood, 10 mg kg^–1
  Cmax: 229 ng/mL
  Tmax: 0.67 h
[4]; blood, 10 mg kg^–1, read-out: AUC (0-Tlast)
  AUC(0-t): 488 ng·h/mL
[4]; blood, 100 mg kg^–1
  Cmax: 5520 ng/mL
  Tmax: 6 h
[4]; blood, 100 mg kg^–1, read-out: AUC (0-Tlast)
  AUC(0-t): 50600 ng·h/mL
[4]; blood, 300 mg kg^–1
  Cmax: 6760 ng/mL
  Tmax: 6.67 h
[4]; [7]
  increase in AUC(0-Tlast): 1.7 fold
  increase in Cmax: 1.2 fold
[4]; in vivo, 300 mg kg^–1, read-out: AUC (0-Tlast)
  AUC(0-t): 84600 ng·h/mL

## Clc1ccc(N2CCC(Nc3ncc4c(C5CCOCC5)n[nH]c4n3)CC2)nn1 [Compound 49]
L. donovani amastigotes
  EC50: 1.58 µM
THP-1 cells
  EC50: > 50.1 µM
[5]
  solubility: 63 µM (≈ 26.1 µg/mL)

## Clc1ccc(N2CCC(Nc3ncc4c(N5CCOCC5)n[nH]c4n3)CC2)nn1 [Compound 50]
L. donovani amastigotes
  EC50: 0.631 µM
THP-1 cells
  EC50: > 50.1 µM
[5]
  solubility: 121 µM (≈ 50.3 µg/mL)
[2]
  Cli mouse: 0.6 ml min^–1 g^–1
FaSSIF solubility
  solubility: 88 µg/mL (≈ 212 µM)
[3]
  AUC: 39800 ng·h/mL
  Cmax: 5230 ng/mL
  Tmax: 4 h
L. donovani; 25 mg kg^–1 b.i.d. for 5 days PO
  % Suppression of parasite load: 17%
L. donovani; 50 mg kg^–1 b.i.d. for 5 days PO
  % Suppression of parasite load: 57%
